Tests used:
[1] = Spontaneous release of nitric oxide, titrated as nitrites+nitrates (Griess reagent, nitrate reductase); details: nitrites+nitrates released; test product 150 μM, 4 hours at 37° C., pH 7.5 PBS buffer; compounds of formula I
Protocol: A solution of a compound of the formula I of the invention spontaneously releases nitric oxide. The nitrite ions resulting therefrom are titrated by colorimetry by means of a specific reagent (Griess). To take account of any release of nitrate ions in addition to the nitrites, bacterial nitrate reductase is added to the reaction medium to reduce the nitrate ions formed.
The reactions and measurements are carried out in transparent 96-well plates. The test products are dissolved at the time of use, at a concentration of 3 mM in dimethyl sulfoxide. 95 μl of a reagent containing nitrate reductase (0.18 U/ml in 100 mM pH 7.5 PBS buffer, 210 μM β-NADPH, 5 μM FAD) and 5 μl of the solution of the test product (final concentration of 150 μM) are then added to each well. After stirring, the mixtures are incubated for 4 hours at 37° C. The reaction is then stopped by adding 100 μl of Griess' reagent (Sigma G4410). The resulting mixture is stirred for 5 min at room temperature, and the optical density is then read at 540 nm. This value is proportional to the concentration of nitrites+nitrates in the medium. A calibration range is made for each plate, using NaNO2.
The results are expressed as μmol/l (μM) of nitrites+nitrates released in Table A for some of the compounds of the formula I given as examples below.

Human LDLs = assay: Oxidation of human LDL by cupric ions (fluorescence), antioxidant effect; type: biochemical
Protocol: Human LDLs placed in aqueous solution in the presence of cupric ions, become spontaneously oxidised on their protein component, apolipoprotein-B. This oxidation makes the particle fluorescent, which is exploited to measure a pharmacological effect.
The reactions and measurements are carried out in black 96-well plates. 10 μl of a solution of the test product dissolved in dimethyl sulfoxide are first mixed with 170 μl of a solution of human LDL at a concentration of 120 μg/ml and 20 μl of 100 μM CuCl2. After stirring, the mixture is incubated for 2 hours at 37° C., and a first fluorescence reading is taken (excitation at 360 nm, reading at 460 nm). The mixture is then incubated for a further 22 hours, to take a second reading under the same conditions. The difference is proportionately smaller the greater the antioxidant power of the test product. Probucol is used as reference product at a concentration of 10 μM.
The concentrations that inhibit 50% (IC50) of the oxidation are prepared from three concentrations of the test product. They are given in Table B below for some of the compounds of the formula I given as examples below.

[2] = oxidation of human lipoproteins, compounds of formula II (Table C)
[3] = human LDL + CuCl2, fluorescence 2 h vs 24 h at 37° C., compounds of formula I (Table B)

Structure (SMILES)	Nitrites-Nitrates [1] [µM]	IC50 (Human LDLs; [2]) [µM]	IC50 (Human LDLs; [3]) [µM]	melting point [°C]
COc1ccc(N(N=O)c2ccc(C(=O)Nc3ccccn3)cc2)cc1 [Example 14b, 4-[1-(4-methoxyphenyl)-2-oxohydrazino]-N-pyrid-2-ylbenzamide]	90	–	–	–
COc1ccc(Nc2ccc(C(=O)Nc3cccc([N+](=O)[O-])c3)cc2)cc1 [Example 8a]	–	10	–	–
COc1ccc(Nc2cccc(C(=O)Nc3cccnc3)c2)cc1 [Example 4a, 3-[(4-Methoxyphenyl)amino]-N-pyrid-3-ylbenzamide]	–	9.1	–	–
O=NN(c1ccc(C(=O)Nc2cccnc2)cc1)c1ccc([N+](=O)[O-])cc1 [Example 5b, 4-[1-(4-Nitrophenyl)-2-oxohydrazino]-N-pyrid-3-ylbenzamide]	47	–	–	–
COc1ccc(N(N=O)c2cccc(C(=O)Nc3cccnc3)c2)cc1 [Example 4b, 3-[1-(4-Methoxyphenyl)-2-oxohydrazino]-N-pyrid-3-ylbenzamide]	70	–	12.7	–
COc1ccc(N(N=O)c2ccc(C(=O)Nc3cccnc3)cc2)cc1 [Example 1b, 4-[1-(4-Methoxyphenyl)-2-oxohydrazino]-N-pyrid-3-ylbenzamide]	63	–	4.6	167 to 169
COc1ccc(N(N=O)c2ccc(C(=O)NCCN3CCN(C)CC3)cc2)cc1 [Example 6b, 4-[1-(4-Methoxyphenyl)-2-oxohydrazino]-N-[2-(4-methylpiperazin-1-yl)-ethyl]benzamide]	58	–	–	–

More lines, main results first:

Nitrites-Nitrates [1] [µM]	IC50 (Human LDLs; [2]) [µM]	IC50 (Human LDLs; [3]) [µM]	Structure (SMILES)	melting point [°C]
82	–	4.8	COc1ccc(N(N=O)c2ccc(C(=O)Nc3ccncc3)cc2)cc1 [Example 15b]	–
–	12.9	–	COc1ccc(Nc2ccc(C(=O)Nc3ccccc3)cc2)cc1 [Example 33a]	–
–	7.7	–	COc1ccc(Nc2cccc(C(=O)NCc3cccnc3)c2)cc1 [Example 132a]	–
–	19.8	–	COc1ccc(Nc2ccc(S(=O)(=O)Nc3cccnc3)cc2)cc1 [Example 136a]	–
–	4.5	–	COc1ccc(Nc2cccc(C(=O)Nc3ccccn3)c2)cc1 [Example 134a]	–
–	7.5	–	COc1ccc(Nc2cccc(C(=O)Nc3ccncc3)c2)cc1 [Example 135a]	–
82	–	9.3	COc1ccc(N(N=O)c2cccc(C(=O)NCc3cccnc3)c2)cc1 [Example 132b]	–
75	–	8.6	COc1ccc(N(N=O)c2cccc(C(=O)Nc3ccncc3)c2)cc1 [Example 135b]	–
